Data on 31 compounds can be found in US11178871B2, “Herbicidal pyrimidine compounds” (BASF SE, priority 2016, dated 2021).

Common to all, as to type: in vivo
The test system of assay [1] is Alopecurus myosuroides. As to the kind of experiment: greenhouse test, post-emergence treatment, ALOMY. The note with it: post-emergence. The text has this: (§1) The culture containers used were plastic flowerpots containing loamy sand with approximately 3.0% of humus as the substrate. The seeds of the test plants were sown separately for each species.
(§2) For the post-emergence treatment, the test plants were first grown to a height of 3 to 15 cm, depending on the plant habit, and only then treated with the active ingredients which had been suspended or emulsified in water. For this purpose, the test plants were either sown directly and grown in the same containers, or they were first grown separately as seedlings and transplanted into the test containers a few days prior to treatment.
(§3) Depending on the species, the plants were kept at 10-25° C. or 20-35° C., respectively.
(§4) The test period extended over 2 to 4 weeks. During this time, the plants were tended, and their response to the individual treatments was evaluated.
(§5) Evaluation was carried out using a scale from 0 to 100. 100 means no emergence of the plants, or complete destruction of at least the aerial moieties, and 0 means no damage, or normal course of growth. A good herbicidal activity is given at values of at least 70 and a very good herbicidal activity is given at values of at least 85.
(§6) The plants used in the greenhouse experiments were of the following species: […]

Assay [2] has as its system Apera spica-venti. As to the kind of experiment: greenhouse test, pre-emergence treatment, APESV.
Text: as §1
(§7) For the pre-emergence treatment, the active ingredients, which had been suspended or emulsified in water, were applied directly after sowing by means of finely distributing nozzles. The containers were irrigated gently to promote germination and growth and subsequently covered with transparent plastic hoods until the plants had rooted. This cover caused uniform germination of the test plants, unless this had been impaired by the active ingredients.
as §3, §4, §5, §6

Assay [3] has as its system Echinocloa crus-galli. The experiment in a line: greenhouse test, post-emergence treatment, ECHCG. The note with it: post-emergence.
Text: as §1, §2, §3, §4, §5, §6

Assay [4] concerns Echinocloa crus-galli. The experiment in a line: greenhouse test, pre-emergence treatment, ECHCG.
Text: as §1, §7, §3, §4, §5, §6

Assay [5] has as its system Avena fatua. The experiment in a line: greenhouse test, post-emergence treatment, AVEFA.
Text: as §1, §2, §3, §4, §5, §6

As for `Clc1ccccc1-c1cnc(C2CC2)nc1COCc1ccccc1` [Ex. 21], the herbicidal activity result in assay [1] (1000 g/ha) and in assay [2] (1000 g/ha) was “very good (a very good herbicidal activity is given at values of at least 85)” in each case.

Take `Cc1ccc(-c2nc(C3CC3)ncc2-c2ccccc2Cl)o1` [Ex. 26]: the herbicidal activity result in assay [1] (2000 g/ha), in assay [3] (2000 g/ha), in assay [2] (2000 g/ha) and in assay [4] (2000 g/ha) was “very good (a very good herbicidal activity is given at values of at least 85)” in each case.

With `Brc1ccccc1-c1cnc(C2CC2)nc1-c1ccco1` [Ex. 34], the herbicidal activity result is recorded as “good (A good herbicidal activity is given at values of at least 70)” in assay [1] (2000 g/ha), “very good (a very good herbicidal activity is given at values of at least 85)” in assay [3] (2000 g/ha), “very good (a very good herbicidal activity is given at values of at least 85)” in assay [2] (2000 g/ha) and “good (A good herbicidal activity is given at values of at least 70)” in assay [4] (2000 g/ha).

Turning to `Fc1cccc(Cl)c1-c1cnc(C2CC2)nc1-c1ccco1` [Ex. 60], the herbicidal activity entry in assay [1] (1000 g/ha) and in assay [5] (1000 g/ha) was “very good (a very good herbicidal activity is given at values of at least 85)” in each case.

As to `CCc1ncc(-c2ccccc2Br)c(-c2ccoc2)n1` [Ex. 63], the herbicidal activity entry in assay [3] (1000 g/ha) is recorded as “very good (a very good herbicidal activity is given at values of at least 85)”.

On to `OC(Cc1nc(C2CC2)ncc1-c1ccccc1Cl)c1ccccc1` (centres unmarked) [Ex. 66], for which the herbicidal activity result in assay [3] (2000 g/ha) is “very good (a very good herbicidal activity is given at values of at least 85)”.

As for `OC1(Cc2nc(C3CC3)ncc2-c2ccccc2Cl)COC1` [Ex. 73], the herbicidal activity entry in assay [1] (2000 g/ha) is given as “good (A good herbicidal activity is given at values of at least 70)”.

In the case of `Cc1ccoc1-c1nc(C2CC2)ncc1-c1ccccc1I` [Ex. 77], the herbicidal activity result in assay [1] (1000 g/ha) and in assay [5] (1000 g/ha) was “very good (a very good herbicidal activity is given at values of at least 85)” in each case.

With `Cc1ccc(-c2nc(C3CC3)ncc2-c2cc(F)c(F)cc2Cl)o1` [Ex. 79], the herbicidal activity entry in assay [1] (1000 g/ha) and in assay [5] (1000 g/ha) was “very good (a very good herbicidal activity is given at values of at least 85)” in each case.

As for `Cc1ccc(-c2nc(C3CC3)ncc2-c2ccc(F)cc2I)o1` [Ex. 81], the herbicidal activity result in assay [1] (1000 g/ha) and in assay [5] (1000 g/ha) was “very good (a very good herbicidal activity is given at values of at least 85)” in each case.

Turning to `CC(C)(C)/C=C/c1nc(C2CC2)ncc1-c1ccccc1Cl` [Ex. 95], the herbicidal activity result in assay [1] (2000 g/ha), in assay [3] (2000 g/ha) and in assay [2] (2000 g/ha) was “very good (a very good herbicidal activity is given at values of at least 85)” in each case.

As for `O=C(O)C(O)Cc1nc(C2CC2)ncc1-c1ccccc1Cl` (centres unmarked) [Ex. 97], the herbicidal activity result in assay [3] (2000 g/ha) and in assay [2] (2000 g/ha) was “very good (a very good herbicidal activity is given at values of at least 85)” each time.

Take `Clc1ccccc1-c1cnc(C2CC2)nc1CCc1ccco1` [Ex. 102]: the herbicidal activity entry in assay [3] (2000 g/ha) is on record as “very good (a very good herbicidal activity is given at values of at least 85)”.

In the case of `Clc1ccccc1-c1cnc(C2CC2)nc1CC1=CCOCC1` [Ex. 104], the herbicidal activity entry in assay [1] (2000 g/ha) is “very good (a very good herbicidal activity is given at values of at least 85)”; in assay [3] (2000 g/ha), “good (A good herbicidal activity is given at values of at least 70)”; in assay [2] (2000 g/ha), “very good (a very good herbicidal activity is given at values of at least 85)”; in assay [4] (2000 g/ha), “good (A good herbicidal activity is given at values of at least 70)”.

Take `Cc1ccc(-c2nc(C3CC3)ncc2-c2cc(F)ccc2C)o1` [Ex. 110]: the herbicidal activity entry in assay [3] (1000 g/ha) is reported as “good (A good herbicidal activity is given at values of at least 70)”.

With `CC(O)c1nc(C2CC2)ncc1-c1ccc(F)cc1Cl` (centres unmarked) [Ex. 112], in assay [3] (1000 g/ha), the herbicidal activity entry is “good (A good herbicidal activity is given at values of at least 70)”.

For `Cc1ccc(-c2nc(C3CC3)ncc2-c2ccccc2C)o1` [Ex. 120], the herbicidal activity entry in assay [1] (1000 g/ha) was “good (A good herbicidal activity is given at values of at least 70)”.

On to `COc1cccc(-c2nc(C3CC3)ncc2-c2ccccc2Cl)c1` [Ex. 125], for which the herbicidal activity result in assay [3] (500 g/ha) is reported as “very good (a very good herbicidal activity is given at values of at least 85)”.

Turning to `N#Cc1csc(-c2nc(C3CC3)ncc2-c2ccccc2Cl)c1` [Ex. 126], in assay [3] (2000 g/ha), the herbicidal activity entry is “very good (a very good herbicidal activity is given at values of at least 85)”.

Consider `CC(C)(O)c1nc(C2CC2)ncc1-c1ccc(F)cc1Cl` [Ex. 135], for which the herbicidal activity entry in assay [1] (500 g/ha) is listed as “good (A good herbicidal activity is given at values of at least 70)”.

As for `OC1(c2nc(C3CC3)ncc2-c2ccccc2Cl)CCC1` [Ex. 143], the herbicidal activity result in assay [3] (2000 g/ha) is “very good (a very good herbicidal activity is given at values of at least 85)”.

`OC1(Cc2nc(C3CC3)ncc2-c2ccccc2Br)COC1` [Ex. 155]: the herbicidal activity result in assay [1] (2000 g/ha) and in assay [3] (2000 g/ha) was “very good (a very good herbicidal activity is given at values of at least 85)” throughout.

Take `Clc1ccccc1-c1cnc(C2CC2)nc1-c1cocn1` [Ex. 215]: the herbicidal activity result in assay [1] (2000 g/ha) and in assay [2] (2000 g/ha) was “very good (a very good herbicidal activity is given at values of at least 85)” in each case.

For `FC(F)(F)c1ccc(-c2nc(C3CC3)ncc2-c2ccccc2Cl)s1` [Ex. 216], the herbicidal activity result in assay [1] (1000 g/ha), in assay [3] (1000 g/ha) and in assay [2] (1000 g/ha) was “very good (a very good herbicidal activity is given at values of at least 85)” in each case.

Turning to `COC(=O)C(O)c1nc(C2CC2)ncc1-c1ccccc1Cl` (centres unmarked) [Ex. 220], the herbicidal activity result in assay [4] (1000 g/ha) is reported as “good (A good herbicidal activity is given at values of at least 70)”.

Regarding `CC(C)=CC=Cc1nc(C2CC2)ncc1-c1ccccc1Cl` [Ex. 224], the herbicidal activity entry in assay [1] (2000 g/ha), in assay [3] (2000 g/ha), in assay [2] (2000 g/ha) and in assay [4] (2000 g/ha) was “very good (a very good herbicidal activity is given at values of at least 85)” throughout.

On to `OC(c1nc(C2CC2)ncc1-c1ccccc1Cl)C(O)c1c(Cl)ccc(Cl)c1Cl` (centres unmarked) [Ex. 240], for which the herbicidal activity entry in assay [2] (2000 g/ha) and in assay [4] (2000 g/ha) was “very good (a very good herbicidal activity is given at values of at least 85)” each time.

Take `OC(Cc1nc(C2CC2)ncc1-c1ccccc1Cl)c1nc(Cl)ccc1Cl` (centres unmarked) [Ex. 256]: the herbicidal activity result in assay [3] (2000 g/ha), in assay [2] (2000 g/ha) and in assay [4] (2000 g/ha) was “very good (a very good herbicidal activity is given at values of at least 85)” each time.

`Cc1ncoc1-c1nc(C2CC2)ncc1-c1ccc(C(F)(F)F)cc1Cl` [Ex. 264]: the herbicidal activity entry in assay [1] (500 g/ha) and in assay [5] (500 g/ha) was “very good (a very good herbicidal activity is given at values of at least 85)” in each case.

For `CC(=O)OC(c1nc(C2CC2)ncc1-c1ccccc1Cl)C(C)(C)OC(C)=O` (centres unmarked) [Ex. 274], the herbicidal activity entry in assay [1] (1000 g/ha), in assay [3] (1000 g/ha), in assay [2] (1000 g/ha) and in assay [4] (1000 g/ha) was “very good (a very good herbicidal activity is given at values of at least 85)” in each case.

With `Cc1nc(-c2nc(C3CC3)ncc2-c2ccccc2Br)co1` [Ex. 288], the herbicidal activity result in assay [1] (2000 g/ha) is recorded as “very good (a very good herbicidal activity is given at values of at least 85)”.
